# US20260000642A1 (Tay Therapeutics Limited, priority 2022, published 2026)
# Values joined by “and” are separate entries in the source; they are usually repeats but may differ in a detail not shown here. Identical values can stand only once.
# Test system: collagen-induced arthritis in Lewis rats
# Test: Collagen-induced arthritis (CIA) model in rats: body weight, paw volume, clinical scores, clinical observations; as to Detailed Clinical Scores, left forelimb: key of the grades not given here; as to Detailed Clinical Scores, left hind limb: key of the grades not given here; as to Detailed Clinical Scores, right forelimb: key of the grades not given here; as to Detailed Clinical Scores, right hind limb: key of the grades not given here; as to Detailed Clinical Scores, score: key of the grades not given here
# Conditions: for Detailed Clinical Scores, left forelimb / Detailed Clinical Scores, left hind limb / Detailed Clinical Scores, right forelimb / Detailed Clinical Scores, right hind limb / Detailed Clinical Scores, score: CIA, per animal ID
# [1] = CIA rats, 10 mg/kg, individual animals
# [2] = CIA rats, 30 mg/kg, individual animals
# [3] = CIA rats, 3 mg/kg twice daily for 21 days
# [4] = CIA rats, 30 mg/kg twice daily for 21 days
smiles,measurement,setting,value
"CNC(=O)c1[nH]c(C(=O)NC2CCC2)cc1O[C@@H](C)c1ccccc1 [Example 101, N^5-cyclobutyl-N^2-methyl-3-(1-phenylethoxy)-1H-pyrrole-2,5-dicarboxamide]",amelioration of clinical symptoms associated with CIA,"3 mg/kg, 10 mg/kg and 30 mg/kg twice daily",dose-dependent effect
same,Clinical Observation Day 15,[1],Diarrhea
same,Clinical Observation Day 19,[1],Diarrhea
same,Clinical Observation Day 12,[2],Diarrhea
same,Clinical Observation Day 13,[2],Diarrhea
same,Clinical Observation Day 16,[2],Diarrhea
same,Clinical Observation Day 18,[2],Diarrhea
same,Clinical Observation Day 19,[2],Diarrhea
same,Clinical Observation Day 21,[2],Diarrhea
same,diarrhea over the 21-day period,"CIA rats, 3 mg/kg twice daily",did not have diarrhea
same,effect on hind paw volume relative to CIA + vehicle (group 2),[3],less effective at preventing an increase in paw volume
same,"increase in body weight, day 21 compared to day 0",[3],1.7%
same,animals that gained weight by the end of the study (of 8),"CIA rats, 3 mg/kg twice daily for 21 days (group 5)",7/8
same,animals showing signs of disease (of 8),"CIA rats, 3 mg/kg twice daily, day 12",Three animals
same,animals showing signs of disease (of 8),"CIA rats, 3 mg/kg twice daily, day 14",all animals
same,diarrhea over the 21-day period,"CIA rats, 10 mg/kg twice daily (group 6)",Two different animals
same,"weight change, day 21 compared to day 0","CIA rats, 10 mg/kg twice daily for 21 days",approximately 0.5%
same,animals that gained weight by the end of the study (of 8),"CIA rats, 10 mg/kg twice daily for 21 days (group 6)",3/8
same,effect on hind paw volume relative to CIA + vehicle (group 2),"CIA rats, 10 mg/kg twice daily for 21 days, both paws, p<0.05",significantly decreased relative to group 2 on days 19 and 21
same,animals showing signs of disease (of 8),"CIA rats, 10 mg/kg twice daily, day 19",all animals
same,diarrhea over the 21-day period,"CIA rats, 30 mg/kg twice daily (group 7)",Four different animals
same,effect on hind paw volume relative to CIA + vehicle (group 2),[4],most effective dose at preventing an increase in paw volume
same,"weight change, day 21 compared to day 0",[4],approximately 0.5%
same,animals that gained weight by the end of the study (of 8),"CIA rats, 30 mg/kg twice daily for 21 days (group 7)",3/8
same,animals showing signs of disease (of 8),"CIA rats, 30 mg/kg twice daily, day 12",One animal
same,hind paw volume increase at plateau relative to day 0,"CIA rats, 30 mg/kg twice daily, increase from around day 19",approximately 35%
same,"Detailed Clinical Scores, left forelimb","Day 0, 3 mg/kg",0
same,"Detailed Clinical Scores, left hind limb","Day 0, 3 mg/kg",0
same,"Detailed Clinical Scores, right forelimb","Day 0, 3 mg/kg",0
same,"Detailed Clinical Scores, right hind limb","Day 0, 3 mg/kg",0
same,"Detailed Clinical Scores, score","Day 0, 3 mg/kg",0
same,"Detailed Clinical Scores, left forelimb","Day 0, 10 mg/kg",0
same,"Detailed Clinical Scores, left hind limb","Day 0, 10 mg/kg",0
same,"Detailed Clinical Scores, right forelimb","Day 0, 10 mg/kg",0
same,"Detailed Clinical Scores, right hind limb","Day 0, 10 mg/kg",0
same,"Detailed Clinical Scores, score","Day 0, 10 mg/kg",0
same,"Detailed Clinical Scores, left forelimb","Day 0, 30 mg/kg",0
same,"Detailed Clinical Scores, left hind limb","Day 0, 30 mg/kg",0
same,"Detailed Clinical Scores, right forelimb","Day 0, 30 mg/kg",0
same,"Detailed Clinical Scores, right hind limb","Day 0, 30 mg/kg",0
same,"Detailed Clinical Scores, score","Day 0, 30 mg/kg",0
same,Average animal body weight percent change,"Day 0, CIA + 3 mg/kg",0.00%
same,Mean animal body weight,"Day 0, CIA + 3 mg/kg",165 g
same,Average animal body weight percent change,"Day 0, CIA + 10 mg/kg",0.00%
same,Mean animal body weight,"Day 0, CIA + 10 mg/kg",162 g
same,Average animal body weight percent change,"Day 0, CIA + 30 mg/kg",0.00%
same,Mean animal body weight,"Day 0, CIA + 30 mg/kg",162 g
same,Average animal body weight percent change,"Day 1, CIA + 3 mg/kg",−0.49%
same,Mean animal body weight,"Day 1, CIA + 3 mg/kg",164 g
same,Average animal body weight percent change,"Day 1, CIA + 10 mg/kg",−1.45%
same,Mean animal body weight,"Day 1, CIA + 10 mg/kg",160 g
same,Average animal body weight percent change,"Day 1, CIA + 30 mg/kg",−0.83%
same,Mean animal body weight,"Day 1, CIA + 30 mg/kg",161 g
same,Average animal body weight percent change,"Day 2, CIA + 3 mg/kg",−0.15%
same,Mean animal body weight,"Day 2, CIA + 3 mg/kg",165 g
same,Average animal body weight percent change,"Day 2, CIA + 10 mg/kg",−1.29%
same,Mean animal body weight,"Day 2, CIA + 10 mg/kg",160 g
same,Average animal body weight percent change,"Day 2, CIA + 30 mg/kg",−1.03%
same,Mean animal body weight,"Day 2, CIA + 30 mg/kg",160 g
same,Average animal body weight percent change,"Day 3, CIA + 3 mg/kg",1.01%
same,Mean animal body weight,"Day 3, CIA + 3 mg/kg",167 g
same,Average animal body weight percent change,"Day 3, CIA + 10 mg/kg",0.91%
same,Mean animal body weight,"Day 3, CIA + 10 mg/kg",164 g
same,Average animal body weight percent change,"Day 3, CIA + 30 mg/kg",−1.32%
same,Mean animal body weight,"Day 3, CIA + 30 mg/kg",160 g
same,Average animal body weight percent change,"Day 4, CIA + 3 mg/kg",0.94%
same,Mean animal body weight,"Day 4, CIA + 3 mg/kg",166 g
same,Average animal body weight percent change,"Day 4, CIA + 10 mg/kg",0.99%
same,Mean animal body weight,"Day 4, CIA + 10 mg/kg",164 g
same,Average animal body weight percent change,"Day 4, CIA + 30 mg/kg",0.47%
same,Mean animal body weight,"Day 4, CIA + 30 mg/kg",163 g
same,Average animal body weight percent change,"Day 5, CIA + 3 mg/kg",1.81%
same,Mean animal body weight,"Day 5, CIA + 3 mg/kg",168 g
same,Average animal body weight percent change,"Day 5, CIA + 10 mg/kg",1.43%
same,Mean animal body weight,"Day 5, CIA + 10 mg/kg",165 g
same,Average animal body weight percent change,"Day 5, CIA + 30 mg/kg",0.90%
same,Mean animal body weight,"Day 5, CIA + 30 mg/kg",163 g
same,"Detailed Clinical Scores, left forelimb","Day 6, 3 mg/kg",0
same,"Detailed Clinical Scores, right forelimb","Day 6, 3 mg/kg",0
same,"Detailed Clinical Scores, right hind limb","Day 6, 3 mg/kg",0
same,"Detailed Clinical Scores, left forelimb","Day 6, 10 mg/kg",0
same,"Detailed Clinical Scores, left hind limb","Day 6, 10 mg/kg",0
same,"Detailed Clinical Scores, right forelimb","Day 6, 10 mg/kg",0
same,"Detailed Clinical Scores, right hind limb","Day 6, 10 mg/kg",0
same,"Detailed Clinical Scores, score","Day 6, 10 mg/kg",0
same,"Detailed Clinical Scores, left forelimb","Day 6, 30 mg/kg",0
same,"Detailed Clinical Scores, left hind limb","Day 6, 30 mg/kg",0
same,"Detailed Clinical Scores, right forelimb","Day 6, 30 mg/kg",0
same,"Detailed Clinical Scores, right hind limb","Day 6, 30 mg/kg",0
same,"Detailed Clinical Scores, score","Day 6, 30 mg/kg",0
same,Average animal body weight percent change,"Day 6, CIA + 3 mg/kg",3.40%
same,Mean animal body weight,"Day 6, CIA + 3 mg/kg",171 g
same,Average animal body weight percent change,"Day 6, CIA + 10 mg/kg",1.77%
same,Mean animal body weight,"Day 6, CIA + 10 mg/kg",165 g
same,Average animal body weight percent change,"Day 6, CIA + 30 mg/kg",0.03%
same,Mean animal body weight,"Day 6, CIA + 30 mg/kg",162 g
same,Average animal body weight percent change,"Day 7, CIA + 3 mg/kg",4.80%
same,Mean animal body weight,"Day 7, CIA + 3 mg/kg",173 g
same,Average animal body weight percent change,"Day 7, CIA + 10 mg/kg",2.23%
same,Mean animal body weight,"Day 7, CIA + 10 mg/kg",166 g
same,Average animal body weight percent change,"Day 7, CIA + 30 mg/kg",0.29%
same,Mean animal body weight,"Day 7, CIA + 30 mg/kg",162 g
same,Average animal body weight percent change,"Day 8, CIA + 3 mg/kg",4.69%
same,Mean animal body weight,"Day 8, CIA + 3 mg/kg",173 g
same,Average animal body weight percent change,"Day 8, CIA + 10 mg/kg",2.82%
same,Mean animal body weight,"Day 8, CIA + 10 mg/kg",167 g
same,Average animal body weight percent change,"Day 8, CIA + 30 mg/kg",1.21%
same,Mean animal body weight,"Day 8, CIA + 30 mg/kg",164 g
same,Average animal body weight percent change,"Day 9, CIA + 3 mg/kg",5.59%
same,Mean animal body weight,"Day 9, CIA + 3 mg/kg",174 g
same,Average animal body weight percent change,"Day 9, CIA + 10 mg/kg",4.86%
same,Mean animal body weight,"Day 9, CIA + 10 mg/kg",170 g
same,Average animal body weight percent change,"Day 9, CIA + 30 mg/kg",2.81%
same,Mean animal body weight,"Day 9, CIA + 30 mg/kg",166 g
same,Average animal body weight percent change,"Day 10, CIA + 3 mg/kg",6.84%
same,Mean animal body weight,"Day 10, CIA + 3 mg/kg",176 g
same,Average animal body weight percent change,"Day 10, CIA + 10 mg/kg",4.86%
same,Mean animal body weight,"Day 10, CIA + 10 mg/kg",170 g
same,Average animal body weight percent change,"Day 10, CIA + 30 mg/kg",2.27%
same,Mean animal body weight,"Day 10, CIA + 30 mg/kg",166 g
same,Average animal body weight percent change,"Day 11, CIA + 3 mg/kg",7.79%
same,Mean animal body weight,"Day 11, CIA + 3 mg/kg",178 g
same,Average animal body weight percent change,"Day 11, CIA + 10 mg/kg",5.09%
same,Mean animal body weight,"Day 11, CIA + 10 mg/kg",171 g
same,Average animal body weight percent change,"Day 11, CIA + 30 mg/kg",2.22%
same,Mean animal body weight,"Day 11, CIA + 30 mg/kg",165 g
same,"Detailed Clinical Scores, left forelimb","Day 12, 3 mg/kg",0
same,"Detailed Clinical Scores, left hind limb","Day 12, 3 mg/kg, 3 mg/kg",1
same,"Detailed Clinical Scores, right forelimb","Day 12, 3 mg/kg, 3 mg/kg",0 (6×) and 1 (2×)
same,"Detailed Clinical Scores, left forelimb","Day 12, 10 mg/kg",0
same,"Detailed Clinical Scores, right forelimb","Day 12, 10 mg/kg",0
same,"Detailed Clinical Scores, left hind limb","Day 12, 10 mg/kg, 10 mg/kg",1 (2×) and 0 (2×)
same,"Detailed Clinical Scores, right hind limb","Day 12, 10 mg/kg, 10 mg/kg",2 and 0 (2×)
same,"Detailed Clinical Scores, score","Day 12, 10 mg/kg, 10 mg/kg",1 (2×) and 2 and 0
same,"Detailed Clinical Scores, left forelimb","Day 12, 30 mg/kg",0
same,"Detailed Clinical Scores, left hind limb","Day 12, 30 mg/kg",0
same,"Detailed Clinical Scores, right forelimb","Day 12, 30 mg/kg",0
same,"Detailed Clinical Scores, right hind limb","Day 12, 30 mg/kg, 30 mg/kg",1 and 0 (5×)
same,"Detailed Clinical Scores, score","Day 12, 30 mg/kg, 30 mg/kg",1 and 0 (4×)
same,Average animal body weight percent change,"Day 12, CIA + 3 mg/kg",8.18%
same,Mean animal body weight,"Day 12, CIA + 3 mg/kg",178 g
same,Average animal body weight percent change,"Day 12, CIA + 10 mg/kg",4.18%
same,Mean animal body weight,"Day 12, CIA + 10 mg/kg",169 g
